Results as given in US11427548B2 (Arvinas Operations, Inc., priority 2015, dated 2022).

Target: T1, Androgen Receptor (Homo sapiens, UniProt P10275)
T1 construct: endogenous in cells; host or cells: VCaP cells
T1 sequence (P10275 1-920): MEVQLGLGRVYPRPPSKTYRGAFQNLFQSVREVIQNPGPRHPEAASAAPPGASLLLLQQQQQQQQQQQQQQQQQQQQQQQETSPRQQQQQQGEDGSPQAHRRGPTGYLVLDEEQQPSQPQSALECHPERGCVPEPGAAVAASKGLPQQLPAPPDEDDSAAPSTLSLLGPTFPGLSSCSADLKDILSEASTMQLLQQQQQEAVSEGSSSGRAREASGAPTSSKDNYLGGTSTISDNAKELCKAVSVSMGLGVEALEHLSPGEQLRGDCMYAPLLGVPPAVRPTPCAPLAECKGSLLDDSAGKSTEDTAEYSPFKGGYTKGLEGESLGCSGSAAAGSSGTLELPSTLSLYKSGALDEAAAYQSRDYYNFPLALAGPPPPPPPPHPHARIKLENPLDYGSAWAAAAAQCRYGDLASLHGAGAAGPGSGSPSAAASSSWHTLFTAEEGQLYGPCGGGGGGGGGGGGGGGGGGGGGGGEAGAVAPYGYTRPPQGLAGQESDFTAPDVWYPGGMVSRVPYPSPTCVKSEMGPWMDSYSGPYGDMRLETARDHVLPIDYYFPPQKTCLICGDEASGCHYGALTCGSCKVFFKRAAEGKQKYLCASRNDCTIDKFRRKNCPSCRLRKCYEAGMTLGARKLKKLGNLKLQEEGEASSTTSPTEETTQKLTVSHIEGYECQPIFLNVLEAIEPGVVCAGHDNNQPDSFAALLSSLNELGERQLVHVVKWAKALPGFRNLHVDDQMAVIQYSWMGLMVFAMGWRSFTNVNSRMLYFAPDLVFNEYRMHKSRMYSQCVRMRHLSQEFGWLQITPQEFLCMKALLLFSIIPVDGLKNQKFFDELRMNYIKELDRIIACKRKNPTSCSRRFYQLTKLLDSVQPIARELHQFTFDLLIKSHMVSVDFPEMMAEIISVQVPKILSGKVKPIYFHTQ
Assay: Androgen Receptor ELISA assay (PathScan AR ELISA) in VCaP cells: AR degradation, Dmax and DC50
Type: cell-based
Conditions: VCaP cells (Table 32); for Dmax: VCaP, highest percentage of Androgen Receptor degradation observed, read-out: VCaP Dmax (%); for DC50: concentration that caused 50% Androgen Receptor degradation, read-out: VCaP DC50
In short: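 VCaP cells in phenol red-free RPMI with 5% charcoal-stripped FBS were grown at least 3 days, then given compound as 7 half-log doses in 0.1% DMSO with 0.1 nM R1881 for 24 h. Lysates went into a sandwich AR ELISA with TMB read at 450 nm.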

Structure (SMILES) | Dmax [%] | DC50 [nM]
Cc1ncsc1-c1ccc(CNC(=O)[C@@H]2C[C@@H](O)CN2C(=O)[C@@H](NC(=O)COCCCC[C@H](C)Oc2ccc(C(=O)N[C@H]3C(C)(C)[C@H](Oc4ccc(C#N)c(Cl)c4)C3(C)C)cc2)C(C)(C)C)cc1 [Example 161, (2S,4R)-1-[(2S)-3,3-dimethyl-2-(2-{[(5R)-5-(4-{[trans-3-(3-chloro-4-cyanophenoxy)-2,2,4,4-tetramethylcyclobutyl]carbamoyl}phen-oxy)hexyl]oxy}acetamido)butanoyl]-4-hydroxy-N-{[4-(4-methyl-1,3-thiazol-5-yl)phenyl]methyl}pyrrolidine-2-carboxamide] | > 71 | < 50
CC(C)(C)[C@H](NC(=O)COCCOCCCCOc1ccc(C(=O)N[C@H]2C(C)(C)[C@H](Oc3ccc(C#N)c(Cl)c3)C2(C)C)cc1)C(=O)N1C[C@H](O)C[C@H]1C(=O)NCc1ccc(-c2cncs2)cc1 [Example 162, (2S,4R)-1-[(2S)-3,3-dimethyl-2-(2-{2-[4-(4-{[trans-3-(3-chloro-4-cyanophenoxy)-2,2,4,4-tetramethylcyclobutyl]carbamoyl}phenoxy)butoxy]ethoxy}acetamido)butanoyl]-4-hydroxy-N-{[4-(1,3-thiazol-5-yl)phenyl]methyl}pyrrolidine-2-carboxamide] | > 71 | < 50
Cc1ncoc1-c1ccc(CNC(=O)[C@@H]2C[C@@H](O)CN2C(=O)[C@@H](NC(=O)COCCCCOc2ccc(C(=O)N[C@H]3C(C)(C)[C@H](Oc4ccc(C#N)c(Cl)c4)C3(C)C)cc2)C(C)(C)C)cc1 [Example 164, (2S,4R)-1-[(2S)-3,3-dimethyl-2-{2-[4-(4-{[trans-3-(3-chloro-4-cyanophenoxy)-2,2,4,4-tetramethylcyclobutyl]carbamoyl}phenoxy)butoxy]acetamido}butanoyl]-4-hydroxy-N-{[4-(4-methyl-1,3-oxazol-5-yl)phenyl]methyl}pyrrolidine-2-carboxamide] | > 71 | < 50
Cc1ncsc1-c1ccc(CNC(=O)[C@@H]2C[C@@H](O)CN2C(=O)[C@@H](NC(=O)COCCCCOc2ccc(C(=O)N[C@H]3C(C)(C)[C@H](Oc4ccc(C#N)c(C(F)(F)F)c4)C3(C)C)cc2)C(C)(C)C)cc1 [Example 165, (2S,4R)-1-[(2S)-3,3-dimethyl-2-{2-[4-(4-{[trans-3-[4-cyano-3-(trifluoromethyl)phenoxy]-2,2,4,4-tetramethylcyclobutyl]carbamoyl}phenoxy)butoxy]acetamido}butanoyl]-4-hydroxy-N-{[4-(4-methyl-1,3-thiazol-5-yl)phenyl]methyl}pyrrolidine-2-carboxamide] | > 71 | < 50
Cc1ncoc1-c1ccc(CNC(=O)[C@@H]2C[C@@H](O)CN2C(=O)[C@@H](NC(=O)COCCCCOc2ccc(C(=O)N[C@H]3C(C)(C)[C@H](Oc4ccc(C#N)c(C(F)(F)F)c4)C3(C)C)cc2)C(C)(C)C)cc1 [Example 166, (2S,4R)-1-[(2S)-3,3-dimethyl-2-{2-[4-(4-{[trans-3-[4-cyano-3-(trifluoromethyl)phenoxy]-2,2,4,4-tetramethylcyclobutyl]carbamoyl}phenoxy)butoxy]acetamido}butanoyl]-4-hydroxy-N-{[4-(4-methyl-1,3-oxazol-5-yl)phenyl]methyl}pyrrolidine-2-carboxamide] | 51 to 70 | < 50
Cc1ncsc1-c1ccc([C@H](C)NC(=O)[C@@H]2C[C@@H](O)CN2C(=O)[C@@H](NC(=O)COCCCCOc2ccc(C(=O)N[C@H]3C(C)(C)[C@H](Oc4ccc(C#N)c(Cl)c4)C3(C)C)cc2)C(C)(C)C)cc1 [Example 167, (2S,4R)-1-[(2S)-3,3-dimethyl-2-{2-[4-(4-{[trans-3-(3-chloro-4-cyanophenoxy)-2,2,4,4-tetramethylcyclobutyl]carbamoyl}phenoxy)butoxy]acetamido}butanoyl]-4-hydroxy-N-[(1S)-1-[4-(4-methyl-1,3-thiazol-5-yl)phenyl]ethyl]pyrrolidine-2-carboxamide] | > 71 | < 50
Cc1ncoc1-c1ccc([C@H](C)NC(=O)[C@@H]2C[C@@H](O)CN2C(=O)[C@@H](NC(=O)COCCCCOc2ccc(C(=O)N[C@H]3C(C)(C)[C@H](Oc4ccc(C#N)c(Cl)c4)C3(C)C)cc2)C(C)(C)C)cc1 [Example 168, (2S,4R)-1-[(2S)-3,3-dimethyl-2-{2-[4-(4-{[trans-3-(3-chloro-4-cyanophenoxy)-2,2,4,4-tetramethylcyclobutyl]carbamoyl}phenoxy)butoxy]acetamido}butanoyl]-4-hydroxy-N-[(1S)-1-[4-(4-methyl-1,3-oxazol-5-yl)phenyl]ethyl]pyrrolidine-2-carboxamide] | > 71 | < 50
Cc1ncsc1-c1ccc([C@@H](C)NC(=O)[C@@H]2C[C@@H](O)CN2C(=O)[C@@H](NC(=O)COCCCCOc2ccc(C(=O)N[C@H]3C(C)(C)[C@H](Oc4ccc(C#N)c(Cl)c4)C3(C)C)cc2)C(C)(C)C)cc1 [Example 171, (2S,4R)-1-[(2S)-3,3-dimethyl-2-{2-[4-(4-{[trans-3-(3-chloro-4-cyanophenoxy)-2,2,4,4-tetramethylcyclobutyl]carbamoyl}phenoxy)butoxy]acetamido}butanoyl]-4-hydroxy-N-[(1R)-1-[4-(4-methyl-1,3-thiazol-5-yl)phenyl]ethyl]pyrrolidine-2-carboxamide] | 26 to 50 | < 50
Cc1ncoc1-c1ccc(CNC(=O)[C@@H]2C[C@@H](O)CN2C(=O)[C@@H](NC(=O)COCCCCCNc2ccc(C(=O)N[C@H]3C(C)(C)[C@H](Oc4ccc(C#N)c(Cl)c4)C3(C)C)cc2)C(C)(C)C)cc1 [Example 173, (2S,4R)-1-[(2S)-3,3-dimethyl-2-[2-({5-[(4-{[trans-3-(3-chloro-4-cyanophenoxy)-2,2,4,4-tetramethylcyclobutyl]carbamoyl}phenyl)amino]pentyl}oxy)acetamido]butanoyl]-4-hydroxy-N-{[4-(4-methyl-1,3-oxazol-5-yl)phenyl]methyl}pyrrolidine-2-carboxamide] | > 71 | < 50
Cc1ncsc1-c1ccc(CNC(=O)[C@@H]2C[C@@H](O)CN2C(=O)[C@@H](NC(=O)COCCCCNc2ccc(C(=O)N[C@H]3C(C)(C)[C@H](Oc4ccc(C#N)c(Cl)c4)C3(C)C)cc2)C(C)(C)C)cc1 [Example 175, (2S,4R)-1-[(2S)-3,3-dimethyl-2-(2-{4-[(4-{[trans-3-(3-chloro-4-cyanophenoxy)-2,2,4,4-tetramethylcyclobutyl]carbamoyl}phenyl)amino]butoxy}acetamido)butanoyl]-4-hydroxy-N-{[4-(4-methyl-1,3-thiazol-5-yl)phenyl]methyl}pyrrolidine-2-carboxamide] | 51 to 70 | < 50
Cc1ncsc1-c1ccc(CNC(=O)[C@@H]2C[C@@H](O)CN2C(=O)[C@@H](NC(=O)COCCCCCNc2ccc(C(=O)N[C@H]3C(C)(C)[C@H](Oc4ccc(C#N)c(Cl)c4)C3(C)C)cc2F)C(C)(C)C)cc1 [Example 176, (2S,4R)-1-[(2S)-2-[2-({5-[(2-fluoro-4-{[trans-3-(3-chloro-4-cyanophenoxy)-2,2,4,4-tetramethylcyclobutyl]carbamoyl}phenyl)amino]pentyl}oxy)acetamido]-3,3-dimethylbutanoyl]-4-hydroxy-N-{[4-(4-methyl-1,3-thiazol-5-yl)phenyl]methyl} pyrrolidine-2-carboxamide] | > 71 | < 50
Cc1ncsc1-c1ccc([C@H](C)NC(=O)[C@@H]2C[C@@H](O)CN2C(=O)[C@@H](NC(=O)COCCCCNc2ccc(C(=O)N[C@H]3C(C)(C)[C@H](Oc4ccc(C#N)c(Cl)c4)C3(C)C)cc2)C(C)(C)C)cc1 [Example 177, (2S,4R)-1-[(2S)-3,3-dimethyl-2-(2-{4-[(4-{[trans-3-(3-chloro-4-cyanophenoxy)-2,2,4,4-tetramethylcyclobutyl]carbamoyl}phenyl)amino]butoxy}acetamido)butanoyl]-4-hydroxy-N-[(1S)-1-[4-(4-methyl-1,3-thiazol-5-yl)phenyl]ethyl]pyrrolidine-2-carboxamide] | > 71 | < 50
Cc1ncsc1-c1ccc([C@@H](C)NC(=O)[C@@H]2C[C@@H](O)CN2C(=O)[C@@H](NC(=O)COCCCCNc2ccc(C(=O)N[C@H]3C(C)(C)[C@H](Oc4ccc(C#N)c(Cl)c4)C3(C)C)cc2)C(C)(C)C)cc1 [Example 178, (2S,4R)-1-[(2S)-3,3-dimethyl-2-(2-{4-[(4-{[trans-3-(3-chloro-4-cyanophenoxy)-2,2,4,4-tetramethylcyclobutyl]carbamoyl}phenyl)amino]butoxy}acetamido)butanoyl]-4-hydroxy-N-[(1R)-1-[4-(4-methyl-1,3-thiazol-5-yl)phenyl]ethyl]pyrrolidine-2-carboxamide] | 26 to 50 | < 50
